According to patent US20100160219A1, “Novel Polypeptides Inducing Dendritic Cell Migration, as Well as Medicines and Pharmaceutical Compositions Containing Same” (priority 2006, published 2010):

How the values were obtained:
[1] = test system: Langerhans cells and dendritic cells; test: In vivo migration-inducing assay in mice (ear application, auricular lymph nodes); details: mouse, 5 μl of 25 mg/ml in DMSO on left ear, 24 hours
Method: The peptide of SEQ ID NO.16 was also tested in vivo in mice in a migration-inducing assay. In order to do this, a population of mice was used in which the EGFP gene is introduced in front of the gene for Langerin, which makes Langerhans cells naturally fluorescent. The gene encoding CCR6 is also disrupted in these mice but normal numbers of Langerhans cells are present in the epidermis. These mice are obtained by crossing two murine strains: the Langerin DTR EGFP line (Kissenpfennig A, et al. in Trends Immunol. 2006 March; 27(3):132-9. Immunity. 2005 May; 22(5):643-54) maintained at the CNRS centre for distribution, typing and archiving at Orleans, France, and subsequently available from the European Mouse Mutant Archive (EMMA, GSF National Research Centre for Environment and Health, Institute of Experimental Genetics, Ingolstädter Landstrasse 1, D-85764 Neuherberg, Munich, Germany, www.emmanet.org) under the identification number EM:01822, and the CCR6 knockout line, published by Cook et al. in Immunity, 2000, 12: 495-503 and by Lukrs et al. in J. Exp. Med., 2001, 194, 551-555.
The peptide of SEQ ID NO.16 is prepared in DMSO at a concentration of 25 mg/ml. […] The number of (naturally fluorescent) Langerhans cells is counted and the total number of dendritic cells identified by labelling with an anti-CD11c antibody.

[2] = test system: dendritic cells; test: In vitro assay of dendritic cell migration; assay type: cell-based; details: cells incubated 24 hours with the fraction or polypeptide, then migration towards MIP-3β; ESAs at final dilution 1:20; index relative to untreated control
Method: The migration assay involves preliminary incubation of dendritic cells with the polypeptide or fraction to be tested, and 24 hours later the cells are washed and loaded onto the upper part of a migration chamber, the lower part containing the chemokine MIP3-β. The cells that have migrated from the upper compartment to the lower compartment are counted, and migration is quantified by determining the percentage they represent of the number of cells that were initially loaded into the upper chamber. The activity of a polypeptide corresponds to the percentage of cells that have migrated.
After 4 to 6 days of differentiation, the cells obtained are frozen in liquid nitrogen and can be stored for several years.
The dendritic cells are thawed and cultured in RPMI medium with 5% FCS, gentamicin, GM-CSF and TNFα to obtain interstitial dendritic cells. […] The cells are counted 48 hours later and 300,000 cells are placed in each Falcon culture tube in a volume of 300 μl. […] After 24 hours, the tubes are recovered, and the cells are counted and resuspended in the culture medium with 1% bovine serum albumin. • 6. […]
After 24 hours, the inserts are removed and the cells that crossed them and are at the bottom of the wells are recovered and counted. The results are expressed as the percentage of cells relative to the number originally placed in the insert. […]

Row | Substance | number of dendritic cells (CD11c) and Langerhans cells in auricular lymph nodes, treated side vs DMSO side [1] | migration of dendritic cells (migration-inducing activity, migration index) [2]
1 | DTGSGGDDSEGAWGGEQQQVQQHGQSEDR (Amino acids 30-58 of the sequence of GRA5 protein from PRU strain of toxoplasma gondii) [SEQ ID NO.16, fragment corresponding to amino acids 30 to 58 of the GRA5-PRU protein, prepared by peptide synthesis] | induces the migration of these cells in vivo | 
2 | glutathione S-transferase [GST, reference compound] |  | no activity
